For test [1], the system named is HCMV AD169-Bac-Luc2 US2-US6 clone #26 virus. In words: HCMV AD169-Bac Luciferase Assay (Example B). Format: cell-based, Human Cytomegalovirus. The conditions noted are these: Human betaherpesvirus 5, AD169, MRC5, 72 h, read-out: EC50 Example B. An excerpt:
This assay format is a luciferase reporter-based assay that determines the ability of compounds to inhibit the infection by detecting a luciferase signal decrease following the addition of BIGlo substrate (preparation indicated below) directly in the culture media. Mono-oxygenation of luciferin is catalyzed by luciferase in the presence of Mg2+, ATP and molecular oxygen. The generation of oxyluciferin is a luminescent reaction that can be detected with the proper platereader. Human Cytomegalovirus AD169-Bac is obtained from Dr. Thomas Shenk at Princeton University (reference paper Yu et al. 2002—J. Virol. 76 (5):2316-2328, herein incorpoarated by reference) and modified by recombineering to introduce a humanized firefly luciferase gene (Luc2) at the US2-US6 position in the HCMV genome. The virus is expanded in MRC-5 cells.
(§1) Serial dilutions of the DMSO stock compound solution are performed using DMSO in columns 2-11 and 14-23. DMSO alone is present in columns 1, 12, 13 and 24. Four μL of the DMSO serial dilutions is obtained and diluted using […] of D-MEM 5% FBS culture medium to obtain 4% DMSO (7×).
To perform the assay, 7 μL of the freshly prepared 4% DMSO serial dilution plate is added to the assay plate containing […] of MRC-5 cells plated the day before (10000 cells per well). Seventeen μL of diluted virus is added to columns 2-12 and 14-24 and only D-MEM 5% FBS medium to uninfected control (columns 1 and 13) for a final DMSO concentration of 0.6%. The virus dilution is based on the amount of virus required to obtain the highest luciferase signal possible without CPE (generally between 0.05 and 1 μL of virus stock per well or MOI=0.02). The assay plates are incubated at 37° C. with 5% CO2 for 3 days. Fifteen μL of room temperature BIGlo buffer is added to room temperature assay plates also incubated at room temperature for 15 minutes. The plates are sealed with TopSeal for biosafety and the luminescence signal is read on the TopCount plate reader (Perkin-Elmer) or equivalent.

For test [2], the system named is HCMV AD169 virus. In words: HCMV AD169 CPE Assay (Example A). As to conditions: Human betaherpesvirus 5, AD169, MRC5, 216 h, MRC-5 cells, 9 days, MTS readout. Format: cell-based. As to the method: This assay format is a CPE (Cytopathic effect)-based assay that determines the ability of compounds to protect cells against infection with a dye reduction assay (MTS of CellTiter 96® AQueous Non-Radioactive Cell Proliferation Assay from Promega). The conversion of MTS into aqueous, soluble formazan is performed by dehydrogenase enzymes found in metabolically active cells. The quantity of formazan product determined by absorbance at 490 nm is directly proportional to the number of living cells in culture.
as §1
To perform the assay, 10 µL of the freshly prepared 4% DMSO serial dilution plate is added to the assay plate containing 40 μL of MRC-5 cells plated the day before (10000 cells per well). Twenty μL of diluted virus is added to columns 2-12 and 14-24 and only D-MEM 5% FBS medium to uninfected control (columns 1 and 13) for a final DMSO concentration of 0.6%.
The virus dilution is based on the amount of virus required to obtain a Signal-to-Background of 3-4 (generally between 0.1 and 1 μL of virus stock per well or MOI=0.05). The assay plates are incubated at 37° C. with 5% CO2 for 9 days in order to obtain 100% CPE in infected control without compound (columns 12 and 24). Ten μL of freshly mixed room temperature MTS/PMS (1:20 v/v) is added and the plates are incubated at 37° C. with 5% CO2 for 4-5 h (until signal saturation at 2.3 in the 100% CPE control). The plates are sealed with TopSeal for biosafety and read on the Envision plate reader (Perkin-Elmer) or equivalent at OD 492 nm.

Test [3] relates to HCMV AD169 virus. Kind of test: HCMV AD169 qPCR 96-Well Assay (Example C). As to conditions: Human betaherpesvirus 5, AD169, MRC5, 72 h; qPCR of viral DNA, MRC-5 cells, 3 days. Format: cell-based. As to the method:
The hCMV quantitative PCR (qPCR) assay evaluates the ability of a compound to inhibit, directly or indirectly, the replication of hCMV viral DNA during the first 72 h following the infection. Compounds that inhibit either entry or the hCMV polymerase are active in this assay. Compounds are tested in the qPCR assay in 96-well plates, using a 9-point dose-response with 8 compounds for each 96-well plate. The assay was adapted from the method described by Schnepf et al., Rapid determination of antiviral drug susceptibility of human cytomegalovirus by real-time PCR, Antiviral Research 81 (2009) 64-67.
Final Concentrations: • 10 mM Tris-HCl pH8.0 • 50 mM KCl • 2 mM MgCl2 • 0.45% Tween20 • 0.45% Nonidet P40
Serial dilutions of the DMSO stock compound solution are performed using DMSO in columns 2-10. DMSO alone is present in columns 1 and 11. Column 12 remains empty. Diluted compounds are further diluted with DMEM 5% FBS cell culture medium.
To perform the assay, 25 μL of inhibitor dilutions freshly prepared is added to the assay plate containing 50 μL of MRC-5 cells plated the day before (30000 cells per well). In a 9 point dose-response, column 1 contains mock infected cells and serves at negative control, with the appropriate concentration of DMSO, columns 2 to 10 contain compound dilutions and column 11 contains infected cells, with the appropriate concentration of DMSO and serves as the positive control. Column 12 serves for the standard curve in the qPCR process. Twenty-five μL of virus diluted in DMEM 5% FBS medium (to infect at MOI=0.05) is added to columns 2-11 and only D-MEM 5% FBS medium to uninfected control (column 1) for a final DMSO concentration of 0.6%. Incubate plates at 37° C. in 5% CO2 incubator for 3 days. Whole cell lysates are then obtained by adding 100 μL of Cell lysis buffer to each well including freshly added Proteinase K at a ratio of 1:5 (i.e. 200 μL Proteinase K:1000 μL Cell Lysis buffer) and incubating the assay plate at 56° C. for 1 h. Plates are centrifuged at 1300 rpm for 2 minutes to remove any condensation before proceeding with the qPCR.
The cell lysate is carefully pipetted up and down to mix well and diluted 1:40 in H2O to give a final dilution of 1:80 relative to the 100 μL of lysis buffer that Is added to the cells. 5 μL of diluted lysate is used for the qPCR reaction. An incubation of 5 minutes at 95° C. in a PCR machine is required to inactivate the Proteinase K. The cell lysates can be stored at −20° C. or used to perform qPCR immediately.
A 81 bp fragment of US17 gene from AD169 is amplified by PCR using primers qHCMV7 and qHCMV8. The PCR product is cloned into pCR4 TOPO vector (Invitrogen) and a clone harboring the insert is selected. A mitochondrial DNA is also added to normalize the HCMV copy number. Serial dilutions of the US17 plasmid and mitochondrial DNA are performed in heat-inactivated lysis buffer at the same dilution as the cell lysates (1:80). Usually, a standard curve ranging from 10E6 to 10E2 copies (per well) is suitable.
A typical qPCR reaction consists of the following:
A qPCR cycle consists of an initial denaturation of DNA and activation of the Taq enzyme at 95° C. for 10 min followed by 45 cycles of 15 seconds at 95° C. and 1 min at 60° C. Fluorescence is measured at each cycle, following the elongation step at 60° C. The reaction, data acquisition and analysis are performed using AppliedBiosystems 7500 Real time PCR system or other suitable real-time PCR system.
(In qPCR the cycle at which signal appears reflects the starting amount.)

The structures appear in SMILES notation.

As usually defined, the EC50 is the concentration needed to bring the measured effect to its halfway point. With `C#CCn1cc(-c2ccc(NC(=O)c3cscn3)cc2)nc1-c1cccc(C(F)(F)F)c1` [Compound 1098], the 50% effective concentration (EC50) in test [1] is 100 nM.
Turning to `Cn1cc(-c2cccc(C(F)(F)F)c2)nc1-c1ccc(NC(=O)c2cscn2)cc1` [Compound 1097], the EC50 in the test on HCMV AD169 virus [2] amounted to 280 nM; in test [1], 60 nM.
Take `CC(O)(c1cccc(C(F)(F)F)c1)c1nc(-c2ccc(NC(=O)c3cscn3)cn2)cn1CCCO` (centres unmarked) [Compound 1113]: the results for the EC50 (in test [1]; with HCMV AD169 virus [3]) were 620 nM and 2100 nM, respectively.
As for `O=C(Nc1ccc(-c2cnc(-c3cc(C(F)(F)F)cc(C(F)(F)F)c3)[nH]2)cc1)c1cscn1` [Compound 1016], the EC50 stood at 135 nM with HCMV AD169 virus [2] and 35 nM in test [1].
For `O=C(Nc1ccc(-c2nc(-c3cccc(C(F)(F)F)c3)nn2CCCN2CCOCC2)cc1)c1cscn1` [Compound 1077], in that order: 903 nM and 180 nM.
On to `O=C(Nc1ccc(-c2cccc(-c3cccc(Cl)c3)n2)cc1)c1cocn1` [Compound 1038], for which the EC50 with HCMV AD169 virus [2] came to 3100 nM; in test [1] it was 1190 nM.
For `CC(c1cccc(Cl)c1)c1ncc(-c2ccc(NC(=O)c3cscn3)cc2)[nH]1` (centres unmarked) [Compound 1086], in that order: 355 nM and 118 nM.
With `O=C(Nc1ccn(-c2cccc(Oc3cccc(Cl)c3)n2)c(=O)c1)c1cscn1` [Compound 1120], the concentration for a half-maximal effect (EC50) in test [1] was found to be 92 nM.
With `Cc1cccc(-c2nnc(-c3ccc(NC(=O)c4cscn4)cc3)[nH]2)c1` [Compound 1070], the values for the EC50 (in the test with HCMV AD169 virus [2]; in test [1]) were 510 nM and 93 nM, respectively.
Compound `O=C(Nc1ccc(-c2nnc(-c3cccc(Cl)c3)[nH]2)cc1)c1csnn1` [Compound 1133] gave an EC50 in the test on HCMV AD169 virus [2] of 2050 nM.
For `O=C(Nc1ccc(-c2ncc(-c3cccc(Cl)c3)[nH]2)cn1)c1cscn1` [Compound 1059], the EC50 in test [1] was determined as 425 nM.
On to `O=C(O)CCn1nc(-c2cccc(Cl)c2)nc1-c1ccc(NC(=O)c2cscn2)cc1` [Compound 1041], for which the EC50 was determined as 4100 nM in the test with HCMV AD169 virus [2] and 645 nM in test [1].
With `CC(c1cccc(C(F)(F)F)c1)c1nc(-c2ccc(NC(=O)c3cscn3)cn2)c[nH]1` (centres unmarked) [Compound 1087], the EC50 in test [1] is 87 nM.
The compound `CC(O)(c1cccc(C(F)(F)F)c1)c1cccc(-n2ccc(NC(=O)c3cscn3)cc2=O)n1` (centres unmarked) [Compound 1130] came in with an EC50 in the test with HCMV AD169 virus [3] of 375 nM.
Consider `O=C(Nc1ccn(-c2nnc(-c3cccc(Cl)c3)[nH]2)c(=O)c1)c1cscn1` [Compound 1117], for which the EC50 in test [1] was 1450 nM; in the test on HCMV AD169 virus [3] it was 3200 nM.
For `O=C(Nc1ccc(-c2nc(-c3cccc(Cl)c3)nn2CC(O)CO)cc1)c1cscn1` (centres unmarked) [Compound 1121], the EC50 in test [1] came to 63 nM; in the test with HCMV AD169 virus [3], 275 nM.
For `CC(c1cccc(C(F)(F)F)c1)c1nc(-n2ccc(NC(=O)c3cscn3)cc2=O)c[nH]1` (centres unmarked) [Compound 1116], in that order: 27 nM and 160 nM.
On to `O=C(Nc1ccc(-c2cnc(-c3cccc(C(F)(F)F)c3)[nH]2)cc1)c1cocn1` [Compound 1143], for which the EC50 with HCMV AD169 virus [2] worked out at 1220 nM; in test [1], 245 nM.
With `CC(O)(c1cccc(C(F)(F)F)c1)c1nc(-n2ccc(NC(=O)c3cscn3)cc2=O)cn1CCCOCc1ccccc1` (centres unmarked) [Compound 1118], the EC50 stood at 460 nM in test [1] and 970 nM in the test with HCMV AD169 virus [3].
Taken in the same sequence, the figures for `NC(=O)CCn1nc(-c2cccc(Cl)c2)nc1-c1ccc(NC(=O)c2cscn2)cc1` [Compound 1109] were 185 nM and 455 nM.
Taken in the same sequence, the figures for `Cc1c(Cl)cccc1-c1cn(C)c(-c2ccc(NC(=O)c3cscn3)nc2)n1` [Compound 1103] were 1170 nM and 5800 nM.
As to `CC(O)(c1cccc(C(F)(F)F)c1)c1nc(-n2ccc(NC(=O)c3cscn3)cc2=O)cn1CCCO` (centres unmarked) [Compound 1119], the EC50 in test [1] was 770 nM; in the test with HCMV AD169 virus [3] it was 2050 nM.
For `CC(O)(c1cccc(C(F)(F)F)c1)c1nc(-n2ccc(NC(=O)c3cscn3)cc2=O)c[nH]1` (centres unmarked) [Compound 1114], in that order: 150 nM and 596 nM.
For `O=C(Nc1ccc(-c2nc(-c3cccc(C(F)(F)F)c3)nn2CCCO)cc1)c1cscn1` [Compound 1034], the concentration giving a half-maximal response (EC50) worked out at 275 nM in the test with HCMV AD169 virus [2] and 59 nM in test [1].
For the compound `CC(c1cccc(C(F)(F)F)c1)c1nc(-c2ccc(NC(=O)c3cscn3)cn2)cn1CCCO` (centres unmarked) [Compound 1111], the EC50 in test [1] amounted to 1260 nM; in the test with HCMV AD169 virus [3], 665 nM.
As for `O=C(Nc1ccn(-c2cccc(-c3cccc(Cl)c3)n2)c(=O)c1)c1cscn1` [Compound 1129], the concentration giving a half-maximal response (EC50) in the test with HCMV AD169 virus [3] amounted to 145 nM.
For the compound `CC(O)(c1cccc(C(F)(F)F)c1)c1nc(-c2ccc(NC(=O)c3cscn3)cn2)cn1CCCOCc1ccccc1` (centres unmarked) [Compound 1115], the EC50 in test [1] was 535 nM; with HCMV AD169 virus [3] it was 1160 nM.
On to `Cn1c(-c2ccc(NC(=O)c3cscn3)cc2)cnc1-c1cccc(C(F)(F)F)c1` [Compound 1096], for which the concentration giving a half-maximal response (EC50) in test [1] is 665 nM.
Consider `CC(O)(c1cccc(C(F)(F)F)c1)c1nc(-c2ccc(NC(=O)c3cscn3)cn2)c[nH]1` (centres unmarked) [Compound 1092], for which the EC50 in test [1] was 203 nM; in the test with HCMV AD169 virus [3], 620 nM.

(Values after patent US9284310B2, “Inhibitors of cytomegalovirus” (Boehringer Ingelheim International GmbH, priority 2012, dated 2016).)
